Values joined by “and” are separate entries in the source; they are usually repeats but may differ in a detail not shown here. Equal values may be shown once.
Assay: xn = mol fraction of the nth substance listed

CC(=O)Oc1ccccc1C(=O)O + CC(C)O
viscosity [mPa·s], 101 kPa
Settings	x1 = 0.00057	x1 = 0.000763	x1 = 0.000955	x1 = 0.00115	x1 = 0.00134	x1 = 0.00153	x1 = 0.00191
293.15 K	2.382	2.382	2.383	2.384	2.385	2.386	2.389
298.15 K	2.045	2.045	2.046	2.046	2.047	2.048	2.049
303.15 K	1.763	1.764	1.764	1.765	1.766	1.767	1.768
308.15 K	1.524	1.524	1.525	1.525	1.525	1.526	1.526
310.15 K	1.437	1.438	1.438	1.438	1.439	1.439	1.44
313.15 K	1.392	1.392	1.393	1.393	1.394	1.394	1.395

CCCCCCCCC(=O)O + CCCCCCCCCCCC(=O)[O-].[Na+]
100 kPa, x2 = 0.2
Settings	viscosity [mPa·s]
293.15 K	68.61
298.15 K	54.38
303.15 K	43.69
308.15 K	35.55
313.15 K	29.28
318.15 K	24.38
323.15 K	20.51

CCCC[P+](CCCC)(CCCC)CCCC.CS(=O)(=O)[O-] + c1c[nH]cn1
101.33 kPa, x1 = 0.5
Settings	viscosity [mPa·s]
313.05 K	99.81
323.05 K	61.32

C1CCOC1 + CO
Settings	viscosity
298 K, 101 kPa, x1 = 0.0397	0.527 mPa·s
298 K, 101 kPa, x1 = 0.0463	0.5241 mPa·s
298 K, 101 kPa, x1 = 0.0629	0.5179 mPa·s
298 K, 101 kPa, x1 = 0.0984	0.5053 mPa·s
298 K, 101 kPa, x1 = 0.1593	0.49 mPa·s
298 K, 101 kPa, x1 = 0.2295	0.4758 mPa·s
298 K, 101 kPa, x1 = 0.3081	0.463 mPa·s
298 K, 101 kPa, x1 = 0.3952	0.4525 mPa·s
298 K, 101 kPa, x1 = 0.5068	0.4445 mPa·s
298 K, 101 kPa, x1 = 0.6498	0.4398 mPa·s
298 K, 101 kPa, x1 = 0.8052	0.4449 mPa·s
298.15 K, 101 kPa, x1 = 0.3	0.4761 mPa·s
298.15 K, 101 kPa, x1 = 0.3076	0.5025 mPa·s and 0.5015 mPa·s and 0.515 mPa·s
303 K, 101.3 kPa, x1 = 0.0471	0.474 mPa·s
303 K, 101.3 kPa, x1 = 0.1	0.452 mPa·s
303 K, 101.3 kPa, x1 = 0.1599	0.435 mPa·s
303 K, 101.3 kPa, x1 = 0.2285	0.406 mPa·s
303 K, 101.3 kPa, x1 = 0.3075	0.38 mPa·s
303 K, 101.3 kPa, x1 = 0.3998	0.373 mPa·s
303 K, 101.3 kPa, x1 = 0.509	0.356 mPa·s
303 K, 101.3 kPa, x1 = 0.6399	0.356 mPa·s
303 K, 101.3 kPa, x1 = 0.7995	0.384 mPa·s
313 K, 101.3 kPa, x1 = 0.0471	0.395 mPa·s
313 K, 101.3 kPa, x1 = 0.1	0.36 mPa·s
313 K, 101.3 kPa, x1 = 0.1599	0.35 mPa·s
313 K, 101.3 kPa, x1 = 0.2285	0.333 mPa·s
313 K, 101.3 kPa, x1 = 0.3075	0.31 mPa·s
313 K, 101.3 kPa, x1 = 0.3998	0.294 mPa·s
313 K, 101.3 kPa, x1 = 0.509	0.3 mPa·s
313 K, 101.3 kPa, x1 = 0.6399	0.294 mPa·s
313 K, 101.3 kPa, x1 = 0.7995	0.332 mPa·s

CC1COC(=O)O1 (configuration not stated) + O
298.15 K, 101 kPa
Settings	viscosity [mPa·s]
x1 = 0.0025	0.9114
x1 = 0.005	0.9267
x1 = 0.01	0.959
x1 = 0.02	1.028
x1 = 0.025	1.064
x1 = 0.0307	1.099

CC1COC(=O)O1 (configuration not stated) + Cc1ccccc1
viscosity [mPa·s], 101.3 kPa
Settings	293.15 K	298.15 K	303.15 K	308.15 K
x1 = 0.0911	0.6805	0.6333	0.5934	0.5572
x1 = 0.1223	–	–	0.6125	–
x1 = 0.1841	0.7726	0.719	0.6689	0.6294
x1 = 0.2385	–	–	0.7127	–
x1 = 0.2789	0.8738	0.8139	0.7586	0.7171
x1 = 0.3493	–	–	0.824	–
x1 = 0.3757	1.006	0.9358	0.8694	0.8243
x1 = 0.4553	–	–	0.9463	–
x1 = 0.4744	1.149	1.074	0.9983	0.9407
x1 = 0.5561	–	–	1.085	–
x1 = 0.5752	1.292	1.195	1.103	1.03
x1 = 0.6524	–	–	1.244	–
x1 = 0.678	1.529	1.404	1.304	1.203
x1 = 0.7452	–	–	1.431	–
x1 = 0.7831	1.856	1.69	1.549	1.42
x1 = 0.8335	–	–	1.646	–
x1 = 0.8904	2.256	2.048	1.869	1.71
x1 = 0.9188	–	–	1.888	–

CC(C)=O + CCOC(C)=O
viscosity [mPa·s], 101 kPa
Settings	x2 = 0.0999	x2 = 0.2009	x2 = 0.3284	x2 = 0.4015	x2 = 0.4977	x2 = 0.5969	x2 = 0.6915	x2 = 0.7908	x2 = 0.9076
293.15 K	0.3328	0.3471	0.3615	0.3751	0.3871	0.4003	0.4129	0.4274	0.4419
298.15 K	0.317	0.3305	0.3438	0.3563	0.3674	0.3795	0.3913	0.4035	0.4179
303.15 K	0.3022	0.3151	0.3274	0.3375	0.3502	0.3603	0.3716	0.3825	0.3961
313.15 K	0.2757	0.2877	0.2982	0.3065	0.3182	0.3262	0.3364	0.3455	0.3573

CCCC(=O)[O-].OCC[NH2+]CCO + CC(=O)O.NCCO
viscosity [mPa·s], 101.3 kPa
Settings	x2 = 0.1516	x2 = 0.2854	x2 = 0.4059	x2 = 0.5163	x2 = 0.6146	x2 = 0.7052	x2 = 0.7885	x2 = 0.8646	x2 = 0.9348
293.15 K	1991	2150	2309	2468	2628	2787	2946	3105	3264
298.15 K	1330	1434	1538	1642	1746	1850	1955	2059	2163
303.15 K	906.1	972.3	1039	1105	1171	1237	1303	1370	1436
308.15 K	631.9	675.2	718.4	761.7	804.9	848.2	891.4	934.7	978
313.15 K	450.1	479.1	508.1	537.1	566.1	595.1	624.1	653.1	682.1
318.15 K	327	347	366.9	386.9	406.8	426.8	446.7	466.7	486.6
323.15 K	242	256	270.1	284.1	298.1	312.2	326.2	340.2	354.3

— the CheMixHub viscosity set
